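Dose response: 5 concentrations. Exposure: 48 h. Format: 96-well plates. Endpoint: linear interpolation; highest concentration if not reached. GI50 marks 50% less growth. TGI: total growth inhibition.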
Experiments:
Test in all cases: inhibition of tumour cell growth, NCI panel, 48 h
NCI-H23 lung = test system: NCI-H23 lung
OVCAR-4 ovarian = test system: OVCAR-4 ovarian
MOLT-4 leukemia = test system: MOLT-4 leukemia
HOP-92 NSCLC = test system: HOP-92 NSCLC
RXF 393 renal = test system: RXF 393 renal
NCI-H522 lung = test system: NCI-H522 lung
SK-MEL-2 melanoma = test system: SK-MEL-2 melanoma
HCT-116 colon = test system: HCT-116 colon
SK-MEL-28 melanoma = test system: SK-MEL-28 melanoma
NCI-H226 lung = test system: NCI-H226 lung

| Compound | GI50 (NCI-H23 lung) [µM] | TGI (NCI-H23 lung) [µM] | GI50 (OVCAR-4 ovarian) [µM] | TGI (OVCAR-4 ovarian) [µM] | GI50 (MOLT-4 leukemia) [µM] | TGI (MOLT-4 leukemia) [µM] | GI50 (HOP-92 NSCLC) [µM] | TGI (HOP-92 NSCLC) [µM] | GI50 (RXF 393 renal) [µM] | TGI (RXF 393 renal) [µM] | GI50 (NCI-H522 lung) [µM] | TGI (NCI-H522 lung) [µM] | GI50 (SK-MEL-2 melanoma) [µM] | TGI (SK-MEL-2 melanoma) [µM] | GI50 (HCT-116 colon) [µM] | TGI (HCT-116 colon) [µM] | GI50 (SK-MEL-28 melanoma) [µM] | TGI (SK-MEL-28 melanoma) [µM] | GI50 (NCI-H226 lung) [µM] | TGI (NCI-H226 lung) [µM] |
| --- | --- | --- | --- | --- | --- | --- | --- | --- | --- | --- | --- | --- | --- | --- | --- | --- | --- | --- | --- | --- |
| COc1ccc(OC)c(/C=N/NC(=O)Cc2csc3nc(-c4ccc(Br)cc4)cn23)c1 | 19.3 | 52.3 | 28.4 | > 100 | 3.47 | 8.08 | 13.9 | 35.5 | 19 | 67.4 | 22.7 | > 100 | 89.7 | > 100 | 4.57 | 15.9 | 41.5 | > 100 |  |  |
| FC(F)(F)c1nc(N2CCCC2)ncc1-c1nnnn1-c1ccc(Cl)cc1 | 20 | 51.8 | 6.7 | 74.8 | 5.07 | 25 |  |  | 14.9 | 51.7 | 10.2 | 59 | 18 | > 100 | 23 | 54.6 | 20 | 74.8 | 13.9 | > 100 |
| Cc1ccc(S(=O)(=O)c2c(N)c3nc4ccccc4n3c3nc4ccccc4nc23)cc1 |  | > 100 |  | > 100 |  | > 100 |  |  |  |  |  | > 100 |  | > 100 |  | > 100 |  | > 100 |  | > 100 |
| N=C(N)c1ccc(OCc2cccc(COc3ccc(C(=N)N)cc3)c2)cc1 | 8.59 | 27.9 | 14.1 | 99.6 | 16.3 | 45.4 | 3.01 | 9.32 |  |  | 16 | > 100 | 24.2 | > 100 | 5.22 | 16.9 | 5.15 | 29.1 | 7.2 | 23.1 |
| O=C1[C@@H]2C(c3ccccc3Br)=NO[C@@H]2C(=O)N1c1ccc(Cc2ccc(N3C(=O)[C@H]4C(c5ccccc5Br)=NO[C@H]4C3=O)cc2)cc1 |  | > 100 |  | > 100 |  | > 100 |  | > 100 |  | > 100 |  |  |  | > 100 |  |  |  | > 100 |  | > 100 |
| CCNC(=O)[C@@H]1CCCN2C(=O)CC[C@H](NC(=O)[C@H](Cc3ccc(OP(=O)(O)O)cc3)NC(C)=O)C(=O)N12 | > 25 | > 25 | > 25 | > 25 | > 25 | > 25 |  |  | > 25 | > 25 | > 25 | > 25 | > 25 | > 25 | > 25 | > 25 | > 25 | > 25 | > 25 | > 25 |
| C[N+](C)(C)CC1CCCC/C1=N\OC(=O)c1ccccc1 (stereo unspecified) |  | > 100 |  | > 100 |  | > 100 |  | > 100 |  | > 100 |  | > 100 |  |  |  | > 100 |  | > 100 |  |  |
| Nc1ccc2c(c1)C(=O)C(=O)c1c-2nc2ccccn12 | 0.576 | 3.05 | 1.23 | 2.49 | 1.96 | 4.88 | 2 | 4.21 | 1.6 | 2.99 |  |  | 1.68 | 3.7 | 1.04 | 2.29 | 1.26 | 2.64 | 1.72 | 3.75 |
| COc1ccccc1NC(=O)c1sc2nc3c(cc2c1N)C(=O)CCC3 | 16.8 | > 100 |  |  | > 100 | > 100 |  |  | 1.83 | 9.33 | 0.586 | 38.7 | 1.81 | > 100 | 6.29 | > 100 | 3.46 | > 100 | 4.87 | > 100 |
| C/C(CN1C(=O)c2ccccc2C1=O)=N\NS(=O)(=O)c1ccc(C)cc1 |  | > 100 |  | > 100 |  | > 100 |  |  |  |  |  | > 100 |  | > 100 |  | > 100 |  |  |  | > 100 |
| CN1N=CSC12C(=O)N(c1ccc(Cl)cc1)C(=O)N2c1ccc(Cl)cc1 (stereo unspecified) |  | 5.14 |  | > 100 |  | 12.3 |  | 8.92 |  | 36.1 |  | 5.73 |  |  |  | 13.3 |  | > 100 |  | 8.66 |
| CCCCCCCCCCCCNC(C)=O |  | 29.9 |  |  |  |  |  | 19.2 |  | 43.4 |  | 27.2 |  | 28.1 |  | 37 |  | 31.4 |  | 35.9 |
| Cc1nc(-c2cccc(Nc3nc(-c4ccc(Cl)cc4)cs3)c2)cs1 | 1.27 | 10.9 |  |  | 30.9 | > 50 | 17.1 | > 50 | 9.63 | 19 | 8.8 | 19 | 8.82 | 18.9 | 11.6 | 27.5 | 9.6 | 21.3 |  |  |
| OC(c1cccc(-n2ccc(C(F)(F)F)n2)c1)c1cnccc1NC1CCCCCC1 (stereo unspecified) | 1.74 | 3.2 | 1.64 | 3.07 | 2.16 | 4.83 | 1.21 | 2.53 | 1.36 | 2.74 | 1.76 | 3.59 | 2.01 | 3.82 | 1.79 | 3.59 | 1.77 | 3.2 |  |  |
| FC(F)(F)Oc1cccc(-c2cnc3ccc(-c4ccncc4)nn23)c1 | 1.96 | 17.4 | 1.4 | 11.3 | 2.17 | 7.73 | 1.8 | 7.82 | 0.398 | 2.41 | 0.771 | 2.82 |  |  | 0.518 | > 100 | 2.53 | > 100 |  |  |
| CCOC(=O)Nc1cc2nnc(-c3ccccc3)nc2c(N)n1 |  | 64.2 |  | 69.2 |  |  |  | 85.2 |  | 53.5 |  |  |  | > 100 |  | 38.7 |  | > 100 |  | 71.8 |
| COc1cc(/C=C/c2ccncc2)cc(OC)c1OC |  | > 100 |  | > 100 |  | > 100 |  | > 100 |  | 99.2 |  | > 100 |  |  |  | > 100 |  | > 100 |  | > 100 |
